Experimental findings from patent publication US20250026724A1, “(1,4,5-TRISUBSTITUTED 1H-PYRAZOL-3-YL)OXY-2-ALKYLTHIOALKYL ACIDS AND -ALKYL ACID DERIVATIVES, SALTS THEREOF AND USE THEREOF AS ACTIVE HERBICIDAL INGREDIENTS” (BAYER AKTIENGESELLSCHAFT, priority 2021, published 2025) are described below.

Common to all, as to assay type: in vivo
For series [1], the system named is Abutilon theophrasti (ABUTH). Briefly: Post-emergence herbicidal action, greenhouse pot trial. As to conditions: Abutilon theophrasti, 504 h, visual rating after about 3 weeks; for pest or weed control at 80 g/ha: read-out: Post-emergence effect at 80 g/ha against ABUTH in %; for pest or weed control at 320 g/ha: read-out: Post-emergence effect at 320 g/ha against ABUTH in %. In a few lines: (§1)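 Activity scored visually roughly 3 weeks post-spray on a 0–100% scale against untreated plants, 100% meaning death. Treatment was post-emergence at one-leaf stage, aqueous spray of WP/EC formulation with 0.5% additive at 600 l/ha water, ≤320 g/ha. Plants grown in sandy loam under greenhouse conditions.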

Series [2] relates to Alopecurus myosuroides (ALOMY). Described as above. As to conditions: visual rating after about 3 weeks; for pest or weed control at 320 g/ha: Alopecurus myosuroides, 504 h, read-out: Post-emergence effect at 320 g/ha against ALOMY in %. Put shortly: as §1
The subject of series [3] is Amaranthus retroflexus (AMARE). The description is as above. Conditions: visual rating after about 3 weeks; for pest or weed control at 80 g/ha / pest or weed control at 320 g/ha: Amaranthus retroflexus, 504 h; for pest or weed control at 80 g/ha: read-out: Post-emergence effect at 80 g/ha against AMARE in %; for pest or weed control at 320 g/ha: read-out: Post-emergence effect at 320 g/ha against AMARE in %. Put shortly: as §1

The subject of the next series is Avena fatua (AVEFA). The description is as above. Conditions: visual rating after about 3 weeks; for pest or weed control at 320 g/ha: Avena fatua, 504 h, read-out: Post-emergence effect at 320 g/ha against AVEFA in %. Put shortly: as §1
A further series relates to Bassia scoparia (KCHSC). The series is described as above. As to conditions: 320 g/ha. Put shortly:
as §1

Series [4] concerns Digitaria sanguinalis (DIGSA). The series is described as above. Conditions: visual rating after about 3 weeks; for pest or weed control at 320 g/ha: Digitaria sanguinalis, 504 h, read-out: Post-emergence effect at 320 g/ha against DIGSA in %. Put shortly:
as §1

Series [5] relates to Echinochloa crus-galli (ECHCG). The series is described as above. Conditions: Echinochloa crus-galli, 504 h, visual rating after about 3 weeks; for pest or weed control at 80 g/ha: read-out: Post-emergence effect at 80 g/ha against ECHCG in %; for pest or weed control at 320 g/ha: read-out: Post-emergence effect at 320 g/ha against ECHCG in %. In a few lines:
as §1

Another series relates to Lolium rigidum (LOLRI). The series is described as above. As to conditions: visual rating after about 3 weeks; for pest or weed control at 320 g/ha: Lolium rigidum, 504 h, read-out: Post-emergence effect at 320 g/ha against LOLRI in %. In a few lines: as §1
Series [6] deals with Matricaria inodora (MATIN). The series is described as above. As to conditions: Tripleurospermum inodorum, 504 h, visual rating after about 3 weeks; for pest or weed control at 80 g/ha: read-out: Post-emergence effect at 80 g/ha against MATIN in %; for pest or weed control at 320 g/ha: read-out: Post-emergence effect at 320 g/ha against MATIN in %. Put shortly: as §1
The test system of series [7] is Pharbitis purpurea (PHBPU). The series is described as above. Conditions: visual rating after about 3 weeks; for pest or weed control at 80 g/ha / pest or weed control at 320 g/ha: Ipomoea purpurea, 504 h; for pest or weed control at 80 g/ha: read-out: Post-emergence effect at 80 g/ha against PHBPU in %; for pest or weed control at 320 g/ha: read-out: Post-emergence effect at 320 g/ha against PHBPU in %. Put shortly: as §1

In series [8] the test system is Polygonum convolvulus (POLCO). The description is as above. As to conditions: visual rating after about 3 weeks; for pest or weed control at 80 g/ha / pest or weed control at 320 g/ha: Fallopia convolvulus, 504 h; for pest or weed control at 80 g/ha: read-out: Post-emergence effect at 80 g/ha against POLCO in %; for pest or weed control at 320 g/ha: read-out: Post-emergence effect at 320 g/ha against POLCO in %. In a few lines:
as §1

The next series relates to Setaria viridis (SETVI). Described as above. As to conditions: visual rating after about 3 weeks; for pest or weed control at 320 g/ha: Setaria viridis, 504 h, read-out: Post-emergence effect at 320 g/ha against SETVI in %. Put shortly: as §1
The next series deals with Viola tricolor (VIOTR). The series is described as above. Conditions: Viola tricolor, 504 h, read-out: Post-emergence effect against VIOTR. In a few lines: as §1
The test system of series [9] is Triticum aestivum (TRZAS). Briefly: Post-emergence crop plant compatibility, greenhouse pot trial. Conditions: in vivo. As to the method:
Seeds of monocotyledonous and dicotyledonous weeds and crop plants are placed in sandy loam in plastic or organic planting pots, covered with soil and cultivated in a greenhouse under controlled growth conditions. 2 to 3 weeks after sowing, the trial plants are treated at the one-leaf stage. The compounds of the invention, formulated in the form of wettable powders (WP) or as emulsion concentrates (EC), are then sprayed onto the green parts of the plants as aqueous suspension or emulsion with addition of 0.5% additive at a water application rate equivalent to 600 l/ha. After about 3 weeks of keeping the trial plants in the greenhouse under optimum growth conditions, the effect of the preparations is rated visually in comparison to untreated controls. For example, 100% activity=the plants have died, 0% activity=like control plants.
The observed effects on selected crop plants are reported here in comparison to the untreated controls (values in %). The appendices “a”, “b” and “c” give differentiation by dosage used with otherwise the same useful plants tested.
As shown by results from Tables B1 to B19, inventive compounds of the general formula (I) in the case of post-emergence treatment have good herbicidal efficacy against harmful plants, for example Abutilon theophrasti (ABUTH), Alopecurus myosuroides (ALOMY), Amaranthus retroflexus (AMARE), Avena fatua (AVEFA), Digitaria sanguinalis (DIGSA), Echinochloa crus-galli (ECHCG), Bassia scoparia (KCHSC), Lolium rigidum (LOLRI), Matricaria inodora (MATIN), Pharbitis purpurea (PHBPU), Polygonum convolvulus (POLCO), Setaria viridis (SETVI), Veronica persica (VERPE) and Viola tricolor (VIOTR) at an application rate of 320 g of active substance or less per hectare, and good crop plant compatibility in the case of organisms such as Oryza sativa (ORYSA), Zea mays (ZEAMX), Brassica napus (BRSNW), Glycine max (GLXMA) and Triticum aestivum (TRZAS) at an application rate of 320 g or less per hectare.

Take `COC(=O)C(Oc1nn(-c2ncccc2F)c(-c2ccc(F)nc2)c1Br)SC` (single isomer, unassigned) [Example I-26]: the pest or weed control at 80 g/ha in [1] was 80%; in series [3] it was 80%; in series [5], 90%; in series [6], 90%; in [7], 80%; in series [8] it was 80%. The pest or weed control at 80 g/ha in the series on Viola tricolor (VIOTR) is 90%. For the same compound, the pest or weed control at 320 g/ha was determined as 80% in series [1]; 90% in series [2]; 90% in [3]; 90% in the series on Avena fatua (AVEFA); 90% in series [4]; 90% in series [5]. For the same compound, the pest or weed control at 320 g/ha in the series on Lolium rigidum (LOLRI) stood at 90%; in series [6], 90%; in [7] it was 90%; in series [8], 90%; with Setaria viridis (SETVI), 80%; in the series with Viola tricolor (VIOTR), 90%. Moreover, the “Post-emergence effect at 80 g/ha against ALOMY in %” value in series [2] (80 g/ha) turned out to be 80%. In the series on Avena fatua (AVEFA) (80 g/ha), the “Post-emergence effect at 80 g/ha against AVEFA in %” value was determined as 80%. Moreover, the “Post-emergence effect against KCHSC” value with Bassia scoparia (KCHSC) stood at 80%. Besides, the “Post-emergence effect at 80 g/ha against DIGSA in %” value in series [4] amounted to 90%. Besides, the “Post-emergence effect at 20 g/ha against PHBPU in %” value in series [7] was 80%. Moreover, the “Post-emergence effect at 20 g/ha against POLCO in %” value in [8] (20 g/ha) worked out at 80%.
For `CCOC(=O)C(Oc1nn(-c2ncccc2F)c(-c2ccc(F)nc2)c1Br)SC` (single isomer, unassigned) [Example I-28], the pest or weed control at 80 g/ha in series [1] was found to be 80%; in [3], 90%; in series [5] it was 90%; in series [6], 80%; in series [7] it was 90%; in [8] it was 90%. Further, in the series on Viola tricolor (VIOTR), the pest or weed control at 80 g/ha stood at 80%. The pest or weed control at 320 g/ha in [1] is 80%; in [2], 90%; in [3], 90%; in the series on Avena fatua (AVEFA), 80%; in series [4], 90%; in [5], 90%. Also, the pest or weed control at 320 g/ha (in the series on Lolium rigidum (LOLRI); in [6]; in series [7]; in series [8]; with Setaria viridis (SETVI); in the series on Viola tricolor (VIOTR)) was 90% throughout. Besides, the “Post-emergence effect at 20 g/ha against AMARE in %” value in series [3] (20 g/ha) was determined as 80%. Further, in the series on Bassia scoparia (KCHSC), the “Post-emergence effect against KCHSC” value came to 80%. For the same compound, the “Post-emergence effect at 80 g/ha against DIGSA in %” value in [4] is recorded as 80%. Further, the “Post-emergence effect at 80 g/ha against LOLRI in %” value in the series on Lolium rigidum (LOLRI) (80 g/ha) was 90%. Further, the “Post-emergence effect at 20 g/ha against PHBPU in %” value in series [7] is listed as 80%. Further, the “Post-emergence effect at 80 g/ha against SETVI in %” value in the series on Setaria viridis (SETVI) is 80%.
On to `CSC(Oc1nn(-c2cc(F)ccc2F)c(-c2cncc(F)c2)c1Br)C(=O)O` (stereo not shown) [Example I-06], for which the pest or weed control at 320 g/ha turned out to be 80% in series [4]; 90% in [5]; 90% in [6]; 80% in series [7]; 90% in the series on Viola tricolor (VIOTR). Moreover, the pest or weed control at 80 g/ha in the series on Viola tricolor (VIOTR) was determined as 80%. The “Post-emergence effect at 320 g/ha against TRZAS in %” value in series [9] came to 20%.
Take `CCOC(=O)C(Oc1nn(-c2ncccc2F)c(-c2ccccc2)c1Br)SC` (stereo not shown) [Example I-11]: the pest or weed control at 320 g/ha in series [1] came to 80%; in [3] it was 90%; in series [5], 80%; in series [6], 80%; in series [8], 80%. Further, the pest or weed control at 80 g/ha in [3] and in [8] was 80% throughout. Further, in series [9], the “Post-emergence effect at 320 g/ha against TRZAS in %” value came out at 0%.
For the compound `CCOC(=O)C(Oc1nn(-c2ncccc2F)c(-c2ccc(F)nc2)c1Br)SC` (stereo not shown) [Example I-13], the pest or weed control at 80 g/ha worked out at 90% in series [1]; 80% in series [3]; 80% in series [5]; 80% in [7]; 80% in series [8]. Also, the pest or weed control at 320 g/ha is 90% in [1]; 80% in series [2]; 90% in [3]; 90% in the series with Avena fatua (AVEFA); 90% in [4]; 90% in series [5]. Further, the pest or weed control at 320 g/ha amounted to 90% in the series with Lolium rigidum (LOLRI); 80% in [7]; 90% in series [8]; 90% in the series with Setaria viridis (SETVI); 80% in the series with Viola tricolor (VIOTR). In addition, the “Post-emergence effect at 80 g/ha against SETVI in %” value with Setaria viridis (SETVI) amounted to 80%.
Regarding `COC(=O)C(Oc1nn(-c2ncccc2F)c(-c2ccc(F)nc2)c1Cl)SC` (stereo not shown) [Example I-56], the pest or weed control at 80 g/ha in series [1] was determined as 80%; in series [5], 90%; in [7] it was 90%; in [8], 80%; in the series with Viola tricolor (VIOTR), 80%. The pest or weed control at 320 g/ha stood at 90% in series [1]; 80% in series [2]; 90% with Avena fatua (AVEFA); 80% with Bassia scoparia (KCHSC) (Bassia scoparia, 504 h, read-out: Post-emergence effect against KCHSC); 80% in series [4]; 90% in series [5]. The pest or weed control at 320 g/ha with Lolium rigidum (LOLRI) was 90%; in [6], 80%; in series [7], 90%; in [8] it was 90%; with Setaria viridis (SETVI), 90%; in the series on Viola tricolor (VIOTR) it was 90%. Also, the “Post-emergence effect at 20 g/ha against PHBPU in %” value in series [7] was 80%.
